Results taken from paper PMC11206988, “Study on the Effect of Pharmaceutical Excipient PEG400 on the Pharmacokinetics of Baicalin in Cells Based on MRP2, MRP3, and BCRP Efflux Transporters” (Pharmaceutics, 2024).

Key:
MDCK II-MRP3 = molecular target: T1, MDCK II-MRP3 (Homo sapiens, UniProt O15438); assay: Transport of baicalin across MDCK II-MRP3 cell monolayer (transwell); assay type: in vitro ADME; conditions: MDCK II-MRP3; high-concentration PEG400 group vs control group
T1 construct: host or cells: MDCK II
Experimental: (§1) The cells were inoculated at a density of 0.5 mL (1 × 10^5) in the upper layer of the transwell plate (AP side), and the culture was changed daily after the lower layer was added with 1.5 mL of complete medium without cells every other day. After 5–7 days of growth, the supernatant was aspirated and discarded, and the cell monolayer was rinsed twice with 37 °C Hank’s Balanced Salt Solution (HBSS, pH 7.4). The electrical resistance of the cell monolayer compartments was measured with a resistivity meter (TEER), and the integrity of the cell monolayer was monitored using TEER. The differentiation of MDCK II-WT, MDCK II-MRP2, MDCK II-MRP3, and MDCK II-BCRP cells was examined by determining sodium fluorescein permeability prior to transit experiments. This was done in order to determine the integrity of the cell monolayer. When the TEER value of the cell monolayer was greater than 150 Ω·cm^2 and the MDCK II-MRP2, MDCK II-MRP3, and MDCK II-BCRP sodium fluorescein permeability was less than 0.5 × 10^−6 cm/s or the MDCK II-WT sodium fluorescein permeability was less than 1 × 10^−6 cm/s, the cell monolayer was considered intact and suitable for transit experiments. TEER = (TEERcell monolayer − TEERblank) × Aarea(1) wherein TEERcell monolayer is the resistance of the cell monolayer read directly from the Millicell ERS-2 resistivity meter, and TEERblank is the resistance read by inserting a blank HBSS (no cells) only. Aarea is the surface area of the filter membrane, 1.12 cm^2.
(§2) In this experiment, a 100 μM baicalin solution (dissolved in HBSS) containing different concentrations of PEG400 (0.25%, 0.5%, and 1%) was employed as the test solution, while a solution without PEG400 was used as the blank test solution, which was added to AP or BL chambers, respectively. In the top to basolateral (AP-BL) transport experiment, the 0.5 mL sample added to the apical side (AP) was utilized as the supply room, and the HBSS preheated to 1.5 mL 37 °C was added to the basolateral (BL) as the receiving chamber. Conversely, in the basal low lateral to top (BL-AP) transport experiment, the 1.5 mL sample (dissolved in HBSS) was added to the BL side as the supply room, and the 0.5 mL preheated HBSS was added as a receiving room on the AP side. Once the aforementioned steps had been completed, the transwell was placed on a 37 °C thermostatic oscillator at 60 r/min, and 100 μL was withdrawn from the receiving cell or 10 μL from the supply chamber at 30, 60, 90, and 120 min, depending on the experiment, and replenished with an equal volume of blank 37 °C preheated HBSS. The samples were utilized to precipitate the proteins with 100 μL of methanol containing the internal standard for 10 min. After centrifugation at 16,000× g for 15 min at 4 °C, the supernatant was collected in a volume of 70 μL. The contents were determined by UPLC-MS/MS, and apparent permeability coefficients (PAPP) and efflux ratios (ER) were calculated.
(§3) The formulas for calculating Papp and ER of monolayer and monolayer are as follows:(2) Papp=dQ/dt/AC0 wherein dQ/dt (ng/mL·s) is the transit rate (ng/mL·s); A is the membrane area (1.12 cm^2); and C0 (ng/mL) is the initial concentration of the sample in the supply chamber. ER = PappBL-AP/PappAP-BL (3) wherein PappBL-AP is the apparent permeability coefficient when the BL is added to the sample, and PappAP-BL is the apparent permeability coefficient when the sample is added at the top side (AP).

MRP3 = molecular target: T2, MRP3 (Homo sapiens, UniProt O15438); assay: as above; assay type: in vitro ADME; conditions: human, pH 7.4, MDCK II-MRP3
T2 construct: host or cells: MDCK II
Experimental: as §1, §2, §3

T2 sequence (O15438 whole entry): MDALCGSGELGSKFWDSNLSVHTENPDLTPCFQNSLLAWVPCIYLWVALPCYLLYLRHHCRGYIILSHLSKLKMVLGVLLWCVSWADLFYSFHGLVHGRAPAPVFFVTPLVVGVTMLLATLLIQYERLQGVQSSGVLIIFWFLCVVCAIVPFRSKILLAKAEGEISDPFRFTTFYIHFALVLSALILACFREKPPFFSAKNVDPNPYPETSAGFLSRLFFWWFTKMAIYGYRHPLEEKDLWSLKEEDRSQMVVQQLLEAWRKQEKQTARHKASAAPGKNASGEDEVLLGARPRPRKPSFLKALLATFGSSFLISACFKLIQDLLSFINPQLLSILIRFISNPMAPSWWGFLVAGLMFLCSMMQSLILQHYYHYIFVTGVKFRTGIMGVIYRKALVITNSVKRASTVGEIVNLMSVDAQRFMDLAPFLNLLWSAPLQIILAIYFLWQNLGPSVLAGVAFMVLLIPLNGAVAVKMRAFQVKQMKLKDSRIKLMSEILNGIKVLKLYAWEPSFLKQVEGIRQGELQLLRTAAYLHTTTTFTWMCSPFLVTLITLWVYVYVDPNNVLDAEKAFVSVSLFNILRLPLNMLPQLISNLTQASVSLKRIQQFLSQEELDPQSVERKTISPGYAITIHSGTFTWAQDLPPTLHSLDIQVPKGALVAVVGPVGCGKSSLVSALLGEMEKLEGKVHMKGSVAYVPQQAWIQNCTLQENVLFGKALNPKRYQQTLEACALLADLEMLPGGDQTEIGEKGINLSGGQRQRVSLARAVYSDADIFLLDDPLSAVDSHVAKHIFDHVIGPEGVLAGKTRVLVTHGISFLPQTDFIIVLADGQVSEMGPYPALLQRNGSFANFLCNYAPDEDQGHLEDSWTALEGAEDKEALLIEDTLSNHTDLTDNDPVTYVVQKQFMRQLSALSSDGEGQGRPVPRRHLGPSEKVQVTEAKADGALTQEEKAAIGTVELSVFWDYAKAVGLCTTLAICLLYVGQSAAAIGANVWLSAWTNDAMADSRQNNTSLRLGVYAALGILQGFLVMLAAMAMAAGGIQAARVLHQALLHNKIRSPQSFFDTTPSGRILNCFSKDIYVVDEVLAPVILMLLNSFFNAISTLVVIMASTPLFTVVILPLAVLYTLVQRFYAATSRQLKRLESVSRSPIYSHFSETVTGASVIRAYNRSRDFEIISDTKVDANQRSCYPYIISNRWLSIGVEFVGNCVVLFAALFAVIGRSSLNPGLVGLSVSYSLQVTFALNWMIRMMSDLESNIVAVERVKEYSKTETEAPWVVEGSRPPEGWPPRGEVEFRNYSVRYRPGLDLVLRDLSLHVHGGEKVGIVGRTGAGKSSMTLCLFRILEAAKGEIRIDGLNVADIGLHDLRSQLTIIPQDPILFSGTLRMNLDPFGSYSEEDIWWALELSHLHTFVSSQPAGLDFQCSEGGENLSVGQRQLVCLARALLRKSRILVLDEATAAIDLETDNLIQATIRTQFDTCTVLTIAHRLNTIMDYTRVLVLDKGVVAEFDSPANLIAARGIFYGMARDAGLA
T1 sequence (O15438 whole entry): as above

With O=C(O)[C@H]1O[C@@H](Oc2cc3oc(-c4ccccc4)cc(=O)c3c(O)c2O)[C@H](O)[C@@H](O)[C@@H]1O [BG, Baicalein-7-O-β-D-glucuronide] the “increase in the PAPPAP-BL/PAPP BL-AP ratio” value (MDCK II-MRP3) was 5.97 fold, the Papp A→B at 120 min, 100 μM (MRP3; 100 μM BG + 0.25% PEG400) was 1.06 ± 0.16 ×10⁻⁶ cm/s and the Papp B→A at 120 min, 100 μM (MRP3; 100 μM BG + 0.25% PEG400) was 1.04 ± 0.08 ×10⁻⁶ cm/s. The Papp A→B at 120 min, 100 μM (MRP3; 100 μM BG + 0.5% PEG400) was 1.77 ± 0.2 ×10⁻⁶ cm/s, the Papp B→A at 120 min, 100 μM (MRP3; 100 μM BG + 0.5% PEG400) was 0.85 ± 0.1 ×10⁻⁶ cm/s and the Papp A→B at 120 min, 100 μM (MRP3; 100 μM BG + 1% PEG400) was 2.65 ± 0.44 ×10⁻⁶ cm/s. For the same compound, the Papp B→A at 120 min, 100 μM (MRP3; 100 μM BG + 1% PEG400) was 0.72 ± 0.16 ×10⁻⁶ cm/s, the Papp A→B at 120 min, 100 μM (MRP3; 100 μM BG alone) was 0.74 ± 0.1 ×10⁻⁶ cm/s and the Papp B→A at 120 min, 100 μM (MRP3; 100 μM BG alone) was 1.18 ± 0.08 ×10⁻⁶ cm/s.
